The target in assay [1] is T1, CDK2 (cyclin E1) (Homo sapiens, UniProt P24941).
T1 construct: purchased Invitrogen Life Technologies (assay service)
In words: LanthaScreen Eu Kinase Binding Assay. To be noted: read-out: CDK2/E IC50. Here is the method:
0.16 μL of 100×test compound in 100% DMSO (at specific solutions) were mixed with 3.84 μL of Kinase Buffer (50 mM HEPES pH 7.5, 0.01% BRIJ-35, 10 mM MgCl2, 1 mM EGTA), 8.0 μL of 2× Kinase (2.5 nM)/Antibody (Eu-anti-GST, 2 nM) Mixture and 4.0 μL of 4×Tracer (Tracer 236, 100 nM). The plates were shaken for 30 seconds, and incubated for 60 minutes at room temperature. The plates were read on fluorescence plate reader with Dual emission at 615 nm and 665 nm.
The following equations were used for LanthaScreen Eu Kinase Binding Assay Data Analysis. Percent inhibition (100-% activity) was fitted to the “four-parameter logistic model” in XLfit for determination of IC50 values.

The target of assay [2] is T2, CDK12 (cyclin K) (Homo sapiens, UniProt Q9NYV4).
T2 construct: purchased Eurofins Pharma Discovery (assay service)
T2 sequence (Q9NYV4 whole entry): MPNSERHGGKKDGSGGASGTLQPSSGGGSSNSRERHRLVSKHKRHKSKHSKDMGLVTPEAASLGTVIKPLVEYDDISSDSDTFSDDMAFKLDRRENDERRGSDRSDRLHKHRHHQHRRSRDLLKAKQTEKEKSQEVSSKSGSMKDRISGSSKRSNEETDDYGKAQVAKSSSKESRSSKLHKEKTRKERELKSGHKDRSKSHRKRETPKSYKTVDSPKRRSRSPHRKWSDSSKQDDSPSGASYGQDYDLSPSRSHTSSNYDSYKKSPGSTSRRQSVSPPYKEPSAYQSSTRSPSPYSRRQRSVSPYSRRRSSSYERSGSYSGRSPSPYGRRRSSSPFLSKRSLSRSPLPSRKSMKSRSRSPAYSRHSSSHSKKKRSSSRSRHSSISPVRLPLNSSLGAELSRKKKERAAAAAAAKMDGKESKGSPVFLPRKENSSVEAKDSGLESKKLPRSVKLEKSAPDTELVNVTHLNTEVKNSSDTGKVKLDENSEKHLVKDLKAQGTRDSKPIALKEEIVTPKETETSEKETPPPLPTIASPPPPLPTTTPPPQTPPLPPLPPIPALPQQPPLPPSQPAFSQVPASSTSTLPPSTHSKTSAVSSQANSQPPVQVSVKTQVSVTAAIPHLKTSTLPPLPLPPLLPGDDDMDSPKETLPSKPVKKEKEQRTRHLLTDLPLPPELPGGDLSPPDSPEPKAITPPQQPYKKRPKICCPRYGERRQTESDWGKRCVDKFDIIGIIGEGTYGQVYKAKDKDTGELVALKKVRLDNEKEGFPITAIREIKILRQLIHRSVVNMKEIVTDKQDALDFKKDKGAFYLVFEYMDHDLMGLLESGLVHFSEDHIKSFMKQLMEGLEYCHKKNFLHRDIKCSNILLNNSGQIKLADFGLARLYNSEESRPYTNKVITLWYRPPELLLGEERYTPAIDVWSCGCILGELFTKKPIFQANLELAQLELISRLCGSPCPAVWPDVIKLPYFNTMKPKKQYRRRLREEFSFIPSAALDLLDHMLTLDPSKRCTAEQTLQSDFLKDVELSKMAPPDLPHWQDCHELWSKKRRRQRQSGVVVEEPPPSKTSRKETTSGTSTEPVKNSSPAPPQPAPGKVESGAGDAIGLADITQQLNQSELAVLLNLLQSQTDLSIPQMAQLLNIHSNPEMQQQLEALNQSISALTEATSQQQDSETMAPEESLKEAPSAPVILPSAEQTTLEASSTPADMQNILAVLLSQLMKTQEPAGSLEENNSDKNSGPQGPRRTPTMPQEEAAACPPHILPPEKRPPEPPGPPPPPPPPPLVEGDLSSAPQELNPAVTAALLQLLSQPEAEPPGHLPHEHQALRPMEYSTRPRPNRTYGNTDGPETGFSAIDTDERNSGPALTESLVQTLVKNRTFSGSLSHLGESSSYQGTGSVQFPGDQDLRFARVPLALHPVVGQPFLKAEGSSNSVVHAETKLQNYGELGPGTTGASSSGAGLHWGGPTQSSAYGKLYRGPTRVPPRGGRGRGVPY
T2 sequence (O75909 whole entry partner): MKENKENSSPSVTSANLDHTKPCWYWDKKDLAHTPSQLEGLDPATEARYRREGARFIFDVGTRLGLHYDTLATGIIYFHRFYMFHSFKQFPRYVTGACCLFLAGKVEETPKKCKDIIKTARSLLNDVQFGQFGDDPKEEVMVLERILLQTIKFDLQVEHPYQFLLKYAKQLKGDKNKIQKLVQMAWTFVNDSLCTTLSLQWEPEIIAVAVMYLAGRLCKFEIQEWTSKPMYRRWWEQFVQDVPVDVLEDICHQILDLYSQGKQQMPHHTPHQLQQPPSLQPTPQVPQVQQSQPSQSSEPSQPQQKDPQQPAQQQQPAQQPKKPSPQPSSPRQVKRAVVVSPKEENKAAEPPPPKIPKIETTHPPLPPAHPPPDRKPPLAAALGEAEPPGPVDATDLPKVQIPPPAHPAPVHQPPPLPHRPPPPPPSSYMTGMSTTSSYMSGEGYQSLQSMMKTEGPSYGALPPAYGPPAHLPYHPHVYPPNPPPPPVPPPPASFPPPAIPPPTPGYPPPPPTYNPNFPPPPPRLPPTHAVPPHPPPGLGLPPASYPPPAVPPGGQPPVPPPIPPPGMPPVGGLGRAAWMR
Nature of the assay: KinaseProfiler radiometric protein kinase assay. In kind it is biochemical. Here is the method:
IC50 values of compounds against CDK12 (cyclin K) were determined by KinaseProfiler™ radiometric protein kinase assay at Eurofins Pharma Discovery (Dundee, UK). Compounds were prepared to 50× final assay concentration in 100% DMSO. This working stock of the compound was added to the assay well as the first component in each reaction. CDK12/Cyclin K was diluted in buffer (20 mM TRIS, 0.2 mM EDTA, 0.1%-mercaptoethanol, 0.01% Brij-35, 5% glycerol, mg/ml BSA) prior to addition to the reaction mix. CDK12/Cyclin K was incubated with 20 mM Tris/HCl pH 8.5, 0.2 mM EDTA, 300 μM SRSRSRSRSRSRSR, 10 mM Magnesium acetate and [γ-^33P-ATP] (specific activity and concentration as required). The reaction was initiated by the addition of the Mg/ATP mix. After incubation for 120 minutes at room temperature, the reaction was stopped by the addition of phosphoric acid to a concentration of 0.5%. 10 μl of the stopped reaction was spotted onto a P30 filtermat and washed four times for 4 minutes in 0.425% phosphoric acid and once in methanol prior to drying and scintillation counting. Results were calculated as a percentage of the mean kinase activity in positive control samples. Data were fitted in XLfit for determination of IC50 values.

On to `N#Cc1cc2cnc(Nc3ccc4c(c3)CCNC4)nc2n(C2CCCC2)c1=O` [Compound No. 31, 8-cyclopentyl-7-oxo-2-((1,2,3,4-tetrahydroisoquinolin-6-yl)amino)-7,8-dihydropyrido[2,3-d]pyrimidine-6-carbonitrile], for which the IC50 in assay [1] was 74 nM; in assay [2], above 10000 nM.

The values are drawn from US20220273659A1, “HETEROCYCLIC COMPOUNDS AS KINASE INHIBITORS” (NUVATION BIO INC., priority 2019, published 2022).
